Where a name gives a salt, the structure may show the parent alone.
target: T1, S1P1 receptor (S1P1 expressing RH7777 membranes) (Homo sapiens, UniProt P21453); assay: S1P1 GTPγS assay; type: biochemical; conditions: S1P1 GTPγS assay, first format, [35S]-GTPγS 0.5 nM
T1 construct: expressed in transfected cells; host or cells: RH7777 cells (membranes)
Method: The potencies and efficacies of the compounds of this invention for the S1P1 receptor can be determined by GTPγS assay performed on the human cloned receptor as described herein.
Membrane preparation for S1P1 GTPγS assay
All steps were performed at 4° C. Cells were homogenised within a glass Waring blender for 2 bursts of 15 secs in 200 mls of buffer (50 mM HEPES, 1 mM leupeptin, 25 μg/ml bacitracin, 1 mM EDTA, 1 mM PMSF, 2 μM pepstatin A). The blender was plunged into ice for 5 mins after the first burst and 10-40 mins after the final burst to allow foam to dissipate. The material was then spun at 500 g for 20 mins and the supernatant spun for 36 mins at 48,000 g. The pellet was resuspended in the same buffer as above but without PMSF and pepstatin A. The material was then forced through a 0.6 mm needle, made up to the required volume, (usually x4 the volume of the original cell pellet), aliquoted and stored frozen at −80° C.
S1P1 expressing RH7777 membranes (1.5 μg/well) membranes (1.5 μg/well) were homogenised by passing through a 23 G needle. These were then adhered to WGA-coated SPA beads (0.125 mg/well) in assay buffer (HEPES 20 mM, MgCl2 10 mM, NaCl 100 mM and pH adjusted to 7.4 using KOH 5M). GDP 10 μM FAC and saponin 90 μg/ml FAC were also added
After 30 minutes precoupling on ice, the bead and membrane suspension was dispensed into white Greiner polypropylene LV 384-well plates (5 μl/well), containing […] of compound. 5 μl/well [^35S]-GTPγS (0.5 nM for S1P1 or 0.3 nM for S1P3 final radioligand concentration) made in assay buffer was then added to the plates. The final assay cocktail (10.1 μl) was then sealed, spun on a centrifuge, then read immediately on a Viewlux instrument.
Alternatively, after 30 minutes precoupling on ice, the bead and membrane suspension was mixed with ^35S]-GTPγS (0.5 nM final radioligand concentration) in assay buffer (HEPES 20 mM, MgCl2 10 mM, NaCl 100 mM and pH adjusted to 7.4 using KOH 5M) in a 1:1 ratio. The bead, membrane and radioligand suspension was dispensed into white Greiner polypropylene low volume 384-well plates (10 μl/well), containing 0.1 μl of a solution of test compound in 100% DMSO. The final assay cocktail (10.1 μl) was then sealed, spun on a centrifuge, then read immediately on a Viewlux instrument.

T1 sequence (P21453 whole entry): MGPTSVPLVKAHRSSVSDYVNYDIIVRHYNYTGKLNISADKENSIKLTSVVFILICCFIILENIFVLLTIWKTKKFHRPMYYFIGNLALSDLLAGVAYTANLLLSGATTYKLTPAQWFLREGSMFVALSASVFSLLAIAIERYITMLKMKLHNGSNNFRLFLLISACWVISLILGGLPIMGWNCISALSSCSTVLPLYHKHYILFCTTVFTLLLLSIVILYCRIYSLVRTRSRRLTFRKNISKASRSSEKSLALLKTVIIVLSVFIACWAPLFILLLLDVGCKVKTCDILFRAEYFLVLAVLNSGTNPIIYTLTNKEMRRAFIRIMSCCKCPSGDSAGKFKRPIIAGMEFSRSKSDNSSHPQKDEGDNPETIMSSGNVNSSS

| EC50 | SMILES |
| --- | --- |
| 2000 nM | Cc1c(-c2nnc(-c3ccc(OC(C)C)c(C#N)c3)s2)ccc2c1CCN(CC(O)CO)C2 (centres unmarked) [Example 18, 5-{5-[2-(2,3-Dihydroxypropyl)-5-methyl-1,2,3,4-tetrahydro-6-isoquinolinyl]-1,3,4-thiadiazol-2-yl}-2-[(1-methylethyl)oxy]benzonitrile] |

same assay, conditions: tested in one of the above S1P1 assays (two GTPγS formats)

| SMILES | EC50 |
| --- | --- |
| COCCN1CCc2ccc(-c3nnc(-c4ccc(OC(C)C)c(C#N)c4)s3)cc2CC1 [Example 30, 2-[(1-Methylethyl)oxy]-5-(5-{3-[2-(methyloxy)ethyl]-2,3,4,5-tetrahydro-1H-3-benzazepin-7-yl}-1,3,4-thiadiazol-2-yl)benzonitrile hydrochloride] | ≤ 1000 nM |
| Cc1c(-c2nnc(-c3ccc(OC(C)C)c(C#N)c3)s2)ccc2c1CCN(CCCO)C2 [Example 16, 5-{5-[2-(3-Hydroxypropyl)-5-methyl-1,2,3,4-tetrahydro-6-isoquinolinyl]-1,3,4-thiadiazol-2-yl}-2-[(1-methylethyl)oxy]benzonitrile] | ≤ 1000 nM |
| CC(C)Oc1ccc(-c2nc(-c3cccc4c3CCN(CCC(N)=O)CC4)no2)cc1C#N [Example 32, 3-[6-(5-{3-Cyano-4-[(1-methylethyl)oxy]phenyl}-1,2,4-oxadiazol-3-yl)-1,2,4,5-tetrahydro-3H-3-benzazepin-3-yl]propanamide] | ≤ 1000 nM |
| CCOc1ncc(-c2nc(-c3ccc4c(c3)CCN(C(CO)CO)CC4)no2)cc1C#N [Example 110, 2-(ethyloxy)-5-(3-{3-[2-hydroxy-1-(hydroxymethyl)ethyl]-2,3,4,5-tetrahydro-1H-3-benzazepin-7-yl}-1,2,4-oxadiazol-5-yl)-3-pyridinecarbonitrile] | ≤ 1000 nM |
| CCCNc1ncc(-c2nc(-c3ccc4c(c3C)CCN(C(CO)CO)CC4)no2)cc1C#N [Example 149, 5-(3-{3-[2-hydroxy-1-(hydroxymethyl)ethyl]-6-methyl-2,3,4,5-tetrahydro-1H-3-benzazepin-7-yl}-1,2,4-oxadiazol-5-yl)-2-(propylamino)-3-pyridinecarbonitrile] | ≤ 1000 nM |
| CC(C)Oc1ccc(-c2nnc(-c3ccc4c(c3)CCN(CCO)CC4)s2)cc1C#N [Example 28, 5-{5-[3-(2-Hydroxyethyl)-2,3,4,5-tetrahydro-1H-3-benzazepin-7-yl]-1,3,4-thiadiazol-2-yl}-2-[(1-methylethyl)oxy]benzonitrile hydrochloride] | ≤ 1000 nM |
| CCCOc1ncc(-c2nc(-c3ccc4c(c3)CCN(C(=O)CN)CC4)no2)cc1C#N [Example 107, 5-[3-(3-glycyl-2,3,4,5-tetrahydro-1H-3-benzazepin-7-yl)-1,2,4-oxadiazol-5-yl]-2-(propyloxy)-3-pyridinecarbonitrile] | ≤ 1000 nM |
| CC(C)Oc1ccc(-c2nc(-c3ccc4c(c3)CCN(CCO)CC4)no2)cc1C#N [Example 19, 5-{3-[3-(2-Hydroxyethyl)-2,3,4,5-tetrahydro-1H-3-benzazepin-7-yl]-1,2,4-oxadiazol-5-yl}-2-[(1-methylethyl)oxy]benzonitrile] | ≤ 100 nM |
| CCCNc1ncc(-c2nc(-c3ccc4c(c3)CCN(C[C@H](O)CO)CC4)no2)cc1C#N [Example 143, 5-(3-{34[(2S)-2,3-dihydroxypropyl]-2,3,4,5-tetrahydro-1H-3-benzazepin-7-yl}-1,2,4-oxadiazol-5-yl)-2-(propylamino)-3-pyridinecarbonitrile hydrochloride] | ≤ 1000 nM |
| Cc1c(-c2nnc(-c3ccc(OC(C)C)c(C#N)c3)s2)ccc2c1CCN(CC(O)CO)C2 (centres unmarked) [Example 18, 5-{5-[2-(2,3-Dihydroxypropyl)-5-methyl-1,2,3,4-tetrahydro-6-isoquinolinyl]-1,3,4-thiadiazol-2-yl}-2-[(1-methylethyl)oxy]benzonitrile] | > 10000 nM |
| Cc1c(-c2nnc(-c3ccc(OC(C)C)c(C#N)c3)s2)ccc2c1CCN(CCO)C2 [Example 15, 5-{5-[2-(2-Hydroxyethyl)-5-methyl-1,2,3,4-tetrahydro-6-isoquinolinyl]-1,3,4-thiadiazol-2-yl}-2-[(1-methylethyl)oxy]benzonitrile] | ≤ 100 nM |
| Cc1c(-c2noc(-c3ccc(OC(C)C)c(C#N)c3)n2)ccc2c1CCN(C(=O)[C@](C)(N)CO)C2 [Example 85, 2-[(1-methylethyl)oxy]-5-{3-[5-methyl-2-(2-methyl-D-seryl)-1,2,3,4-tetrahydro-6-isoquinolinyl]-1,2,4-oxadiazol-5-yl}benzonitrile] | ≤ 100 nM |
| CC(C)Oc1ccc(-c2nc(-c3cccc4c3CCN(CCO)CC4)no2)cc1C#N [Example 34, 5-{3-[3-(2-Hydroxyethyl)-2,3,4,5-tetrahydro-1H-3-benzazepin-6-yl]-1,2,4-oxadiazol-5-yl}-2-[(1-methylethyl)oxy]benzonitrile] | ≤ 100 nM |
| CCCOc1ncc(-c2nc(-c3ccc4c(c3)CCN(C(CO)CO)CC4)no2)cc1C#N [Example 109, 5-(3-{3-[2-hydroxy-1-(hydroxymethyl)ethyl]-2,3,4,5-tetrahydro-1H-3-benzazepin-7-yl}-1,2,4-oxadiazol-5-yl)-2-(propyloxy)-3-pyridinecarbonitrile] | ≤ 1000 nM |
| N#Cc1cc(-c2nc(-c3ccc4c(c3)CCN(CC(O)CO)CC4)no2)ccc1N1CC(F)C1 (centres unmarked) [Example 104, 5-{3-[3-(2,3-dihydroxypropyl)-2,3,4,5-tetrahydro-1H-3-benzazepin-7-yl]-1,2,4-oxadiazol-5-yl}-2-(3-fluoro-1-azetidinyl)benzonitrile] | > 10000 nM |
| CCCOc1ccc(-c2nc(-c3ccc4c(c3)CCN(CC(O)CO)CC4)no2)cc1C#N (centres unmarked) [Example 51, 5-{3-[3-(2,3-dihydroxypropyl)-2,3,4,5-tetrahydro-1H-3-benzazepin-7-yl]-1,2,4-oxadiazol-5-yl}-2-(propyloxy)benzonitrile] | ≤ 100 nM |

More lines, now with the values ahead:

| EC50 | SMILES |
| --- | --- |
| ≤ 100 nM | CC(C)Oc1ccc(-c2nc(-c3cccc4c3CCN(CCCO)CC4)no2)cc1C#N [Example 33, 5-{3-[3-(3-Hydroxypropyl)-2,3,4,5-tetrahydro-1H-3-benzazepin-6-yl]-1,2,4-oxadiazol-5-yl}-2-[(1-methylethyl)oxy]benzonitrile] |
| ≤ 100 nM | CC(C)Nc1ccc(-c2nc(-c3ccc4c(c3)CCN(C(=O)CN)CC4)no2)cc1C#N [Example 52, 5-[3-(3-glycyl-2,3,4,5-tetrahydro-1H-3-benzazepin-7-yl)-1,2,4-oxadiazol-5-yl]-2-[(1-methylethyl)amino]benzonitrile] |
| ≤ 100 nM | CC(C)Oc1ccc(-c2nc(-c3ccc4c(c3)CCN(C(=O)CCCN)CC4)no2)cc1C#N [Example 63, 5-{3-[3-(4-aminobutanoyl)-2,3,4,5-tetrahydro-1H-3-benzazepin-7-yl]-1,2,4-oxadiazol-5-yl}-2-[(1-methylethyl)oxy]benzonitrile] |
| ≤ 100 nM | CC(C)Oc1ccc(-c2nc(-c3ccc4c(c3)CCN(CC(O)CO)CC4)no2)cc1C#N (centres unmarked) [Example 27, 5-{3-[3-(2,3-Dihydroxypropyl)-2,3,4,5-tetrahydro-1H-3-benzazepin-7-yl]-1,2,4-oxadiazol-5-yl}-2-[(1-methylethyl)oxy]benzonitrile] |
| ≤ 100 nM | CCCOc1ccc(-c2nc(-c3ccc4c(c3)CCN(C(=O)CN)CC4)no2)cc1C#N [Example 62, 5-[3-(3-glycyl-2,3,4,5-tetrahydro-1H-3-benzazepin-7-yl)-1,2,4-oxadiazol-5-yl]-2-(propyloxy)benzonitrile] |
| ≤ 100 nM | CCCNc1ccc(-c2nc(-c3ccc4c(c3)CCN(CC(O)CO)CC4)no2)cc1C#N (centres unmarked) [Example 50, 5-{3-[3-(2,3-dihydroxypropyl)-2,3,4,5-tetrahydro-1H-3-benzazepin-7-yl]-1,2,4-oxadiazol-5-yl}-2-(propylamino)benzonitrile] |
| ≤ 100 nM | COCCN1CCc2ccc(-c3noc(-c4ccc(OC(C)C)c(C#N)c4)n3)cc2CC1 [Example 21, 2-[(1-Methylethyl)oxy]-5-(3-{3-[2-(methyloxy)ethyl]-2,3,4,5-tetrahydro-1H-3-benzazepin-7-yl}-1,2,4-oxadiazol-5-yl)benzonitrile] |
| ≤ 10 nM | CC(C)Oc1ccc(-c2nc(-c3ccc4c(c3)CCN(C(=O)CN[C@@H](C)CO)CC4)no2)cc1C#N [Example 99, 5-[3-(3-{N-[(1S)-2-hydroxy-1-methylethyl]glycyl}-2,3,4,5-tetrahydro-1H-3-benzazepin-7-yl)-1,2,4-oxadiazol-5-yl]-2-[(1-methylethyl)oxy]benzonitrile hydrochloride] |
| ≤ 10 nM | Cc1c(-c2noc(-c3ccc(OC(C)C)c(C#N)c3)n2)ccc2c1CCN(CC(=O)NC[C@@H](C)O)C2 [Example 120, 2-[6-(5-{3-cyano-4-[(1-methylethyl)oxy]phenyl}-1,2,4-oxadiazol-3-yl)-5-methyl-3,4-dihydro-2(1H)-isoquinolinyl]-N-[(2R)-2-hydroxypropyl]acetamide hydrochloride] |

From patent US20120101083A1, “S1P1 AGONISTS COMPRISING A BICYCLIC N-CONTAINING RING” (GLAXO GROUP LIMITED, priority 2009, published 2012)
